Measured values: patent US20220143035A1, “METHODS FOR TREATING AUTOIMMUNE OR AUTOINFLAMMATORY DISEASE” (UNIVERSITY OF WASHINGTON, priority 2019, published 2022)

How the values were obtained:
Format in all cases: cell-based, human
[1] = tested on: histone H2AX on serine 139 (γ-H2AX); test: Western blot of γ-H2AX phosphorylation in CT DNA-treated STING KO U937 cells; conditions: PMA-differentiated STING KO U937 cells, CT DNA 16 hours; Ku-60019 0.125-1 μM, Nu-7441 0.25-2 μM; FIG. 4A
Method: (§1) FIG. 4A-K: Human DNA-PK is essential for the SIDSP. (A) PMA-differentiated STING KO U937 cells were treated with CT DNA for 16 hours in the presence of DMSO control, increasing concentrations of Ku-60019 ATM inhibitor [0.125, 0.25, 0.5, 1 μM], or Nu-7441 DNA-PK inhibitor [0.25, 0.5, 1, 2 μM], followed by western blot analysis of γ-H2AX phosphorylation. (B) PMA-differentiated STING KO U937 cells were treated with CT DNA for 16 hours in the presence of inhibitors as described in (A), followed by RT-qPCR analysis of IFNB1 mRNA expression. n.s.: not significant; ***:p<0.001. n=3 independent treatments per condition. (C) PMA-differentiated STING KO U937 cells were treated with CT DNA or RIG-I ligand in the presence of DMSO or Nu-7441 for 16 hours, followed by RT-qPCR analysis of IFNB1 mRNA expression. n.s.: not significant; ***:p<0.001. n=3 independent treatments per condition. […] (F) Primary human foreskin fibroblasts (HFF) and primary human hepatocytes from male (♂) and female (♀) donors were assessed for cGAS, STING, and DNA-PK proteins by fractionation into cytosol (C) and nuclear (N) extracts, followed by western blot. […] Multiple t-tests with significance determined by the Holm-Sidak method were used to compare IFNB1 in DMSO versus Nu7441 treated cells. *:p<0.05, ****:P<.0001. n=3 independent treatments per condition. […]

[2] = tested on: STING-independent DNA sensing pathway (SIDSP); test: RT-qPCR of IFNB1 mRNA in CT DNA-treated STING KO U937 cells; conditions: PMA-differentiated STING KO U937 cells, CT DNA 16 hours; for SIDSP activation (IFNB1 mRNA expression): Ku-60019 0.125-1 μM, Nu-7441 0.25-2 μM, FIG. 4B
Method: FIG. 4A-K: Human DNA-PK is essential for the SIDSP. (A) PMA-differentiated STING KO U937 cells were treated with CT DNA for 16 hours in the presence of DMSO control, increasing concentrations of Ku-60019 ATM inhibitor [0.125, 0.25, 0.5, 1 μM], or Nu-7441 DNA-PK inhibitor [0.25, 0.5, 1, 2 μM], followed by western blot analysis of γ-H2AX phosphorylation. (B) PMA-differentiated STING KO U937 cells were treated with CT DNA for 16 hours in the presence of inhibitors as described in (A), followed by RT-qPCR analysis of IFNB1 mRNA expression. n.s.: not significant; ***:p<0.001. n=3 independent treatments per condition. (C) PMA-differentiated STING KO U937 cells were treated with CT DNA or RIG-I ligand in the presence of DMSO or Nu-7441 for 16 hours, followed by RT-qPCR analysis of IFNB1 mRNA expression. n.s.: not significant; ***:p<0.001. n=3 independent treatments per condition. (D) Western blot analysis of DNA-PK and STING in clonal lines of H1 control, STING KO and STING/DNA-PK DKO U937 cells. (E) PMA-differentiated STING KO and STING/DNA-PK DKO U937 cells were treated with CT DNA for 16 hours in DMSO or 2 μM Nu-7441, followed by RT-qPCR analysis of IFNB1 mRNA expression, normalized to Lipo control-treated cells. **:p<0.01. n=3 independent treatments per condition. (F) Primary human foreskin fibroblasts (HFF) and primary human hepatocytes from male (♂) and female (♀) donors were assessed for cGAS, STING, and DNA-PK proteins by fractionation into cytosol (C) and nuclear (N) extracts, followed by western blot. The nuclear extract was treated with salt-active nuclease to remove genomic DNA. (G) The indicated cell lines were stimulated with cGAMP for 16 hours before harvest and RT-qPCR analysis of IFNB1 mRNA expression. […] Multiple t-tests with significance determined by the Holm-Sidak method were used to compare IFNB1 in DMSO versus Nu7441 treated cells. *:p<0.05, ****:P<.0001. n=3 independent treatments per condition. […]

[3] = tested on: RNA-activated RIG-I-MAVS pathway; test: RT-qPCR of IFNB1 mRNA in RIG-I ligand-treated STING KO U937 cells; conditions: PMA-differentiated STING KO U937 cells, RIG-I ligand 16 hours, DMSO or Nu-7441; FIG. 4C
Method: as §1

[4] = tested on: WT U937 cells; test: Global mRNA-Seq analysis in WT (H1 control) U937 cells
From the text: FIG. 5A-F: The DNA-PK SIDSP activates a broad gene expression program. (A) Heat map representation of log 2 Fold Change in gene expression for the 124 antiviral response genes with significant differential expression in one of the four comparisons. The key includes a histogram in cyan plotting the distribution of log 2 Fold Change values for all the included genes. Data represent the average of three independent treatments per condition. […] Data represent the average of three independent treatments per condition. […] Data represent the average of three independent treatments per condition. (D) In H1 control U937 cells, the 16 hour CT DNA-activated log 2 Fold Change was plotted for DMSO control-treated cells on the x-axis and for Nu-7441-treated cells on the y-axis. Each dot represents a single gene that was differentially expressed at 16 hours in DMSO-treated cells (n=1024). […]
FIG. 8A-E: Normalized mRNA-Seq data comparing WT and STING KO U937 cells. (A) Boxplot depicting normalized read counts in log 2CPM format across all 36 samples. […] (C) Normalized read counts in log 2CPM format, comparing Lipo-treated WT U937 cells to Lipo-treated STING KO U937 cells. (D) Normalized read counts in log 2CPM format, comparing Lipo-treated WT U937 cells pretreated with DMSO or 2 μM N-7441. (E) Normalized read counts in log 2CPM format, comparing Lipo-treated STING KO cells pretreated with DMSO or 2 μM N-7441. […]

[5] = tested on: STING KO U937 cells (DNA-PK SIDSP); test: Global mRNA-Seq analysis in STING KO U937 cells
From the text: (A) Heat map representation of log 2 Fold Change in gene expression for the 124 antiviral response genes with significant differential expression in one of the four comparisons. The key includes a histogram in cyan plotting the distribution of log 2 Fold Change values for all the included genes. Data represent the average of three independent treatments per condition. […] Data represent the average of three independent treatments per condition. […] Data represent the average of three independent treatments per condition. (D) In H1 control U937 cells, the 16 hour CT DNA-activated log 2 Fold Change was plotted for DMSO control-treated cells on the x-axis and for Nu-7441-treated cells on the y-axis. Each dot represents a single gene that was differentially expressed at 16 hours in DMSO-treated cells (n=1024). […] A Wilcoxon matched pairs signed rank test was used to determine the p-value between DMSO control and Nu-7441-treated samples after DNA stimulation. Data represent the average of three independent treatments per condition. […]
Total RNA was added directly to lysis buffer from the SMART-Seq v4 Ultra Low Input RNA Kit for Sequencing (Takara), and reverse transcription was performed followed by PCR amplification to generate full length amplified cDNA. […] Libraries were pooled and quantified using a Qubit® Fluorometer (Life Technologies). Dual-index, single-read sequencing of pooled libraries was carried out on a HiSeq2500 sequencer (Illumina) with 58-base reads, using HiSeq™ v4 Cluster and SBS kits (IIlumina) with a target depth of 5 million reads per sample.

[6] = tested on: IRF3 S386 phosphorylation; test: Western blot of IRF3 pS386 in HEK 293 cells after DNA damage or stress agents; conditions: STING KO HEK 293 cells, up to 12 hours; 50 μM Etoposide, 500 nM Thapsigargin
[7] = tested on: endoplasmic reticulum (ER) stress response; test: Endoplasmic reticulum stress response in HEK 293 cells; conditions: 500 nM Thapsigargin, control

Row | Compound | DNA-activated phosphorylation of the histone H2AX on serine 139 (γ-H2AX) [1] | SIDSP activation (IFNB1 mRNA expression) [2] | RNA-activated RIG-I-MAVS pathway (IFNB1 mRNA expression) [3] | differentially expressed genes on which the inhibitor had a (mild) inhibitory effect ([4]; 16 hours post DNA transfection, 2 μM Nu-7441 vs vehicle, 718/1024 genes, FIG. 5D) [%] | effect on gene expression in the absence of DNA stimulation ([4]; Lipo-treated, 2 μM, FIG. 8D) | differentially expressed genes on which the inhibitor had an inhibitory effect ([5]; STING KO U937 cells, 16 hours post DNA transfection, 2 μM Nu-7441 vs vehicle, 1254/1327 genes, up- and downregulated, FIG. 5E) [%] | effect on gene expression in the absence of DNA stimulation ([5]; STING KO U937 cells, Lipo-treated, 2 μM, FIG. 8E) | gene expression triggered by the SIDSP ([5]; summary statement in discussion) | DNA-activated antiviral response (IFNB1 mRNA expression) ([2]; DMSO or Nu-7441, FIG. 4C) | activation of IRF3 phosphorylation [6] | endoplasmic reticulum (ER) stress response [7]
1 | C[C@@H]1CN(CC(=O)Nc2ccc3c(c2)Cc2cccc(-c4cc(=O)cc(N5CCOCC5)o4)c2S3)C[C@H](C)O1 [Ku-60019] | reduced the DNA-activated phosphorylation of the histone H2AX on serine 139 (γ-H2AX) in a concentration-dependent manner | unaffected | – | – | – | – | – | – | – | – | –
2 | O=c1cc(N2CCOCC2)oc2c(-c3cccc4c3sc3ccccc34)cccc12 [Nu-7441, 8-(dibenzo[b,d]thiophen-4-yl)-2-morpholino-4H-chromen-4-one] | reduced the DNA-activated phosphorylation of the histone H2AX on serine 139 (γ-H2AX) in a concentration-dependent manner | potently blocked | had no effect | 70.1 | no significant effect | 94.5 | no significant effect | potently reduced nearly all gene expression | blocked the DNA-activated antiviral response | – | –
3 | C/C=C(/C)C(=O)O[C@H]1C(C)=C2[C@H]([C@@H]1OC(=O)CCCCCCC)[C@@](C)(OC(C)=O)C[C@H](OC(=O)CCC)[C@@]1(O)[C@H]2OC(=O)[C@@]1(C)O [thapsigargin] | – | – | – | – | – | – | – | – | – | but not IRF3, HSPA8, or H2AX phosphorylation | induced a potent endoplasmic reticulum (ER) stress response
